From patent US20230241038A1, “METHOD OF TREATING RNA REPEAT MEDIATED DISEASES WITH RNA REPEAT BINDING COMPOUND” (AMO Pharma Ltd., priority 2021, published 2023)
pKd: −log10 of the molar value. “Also recorded” adds a separate entry of the source. Read-outs that look alike come from different tables or passages of the source.

Experiments:
[1] = biological target: RNA construct containing CUG repeats (RNA hairpin 1; SEQ ID NO:1); experiment: MicroScale Thermophoresis (MST) fluorescence binding assay, RNA hairpin 1; conditions: RNA hairpin 1 (CUG repeats)
Procedure: [The procedure below names another target; the source lists this target under the same test.] This direct binding was determined using a MicroScale Thermophoresis (MST) Fluorescence binding assays with Tideglusib and an RNA hairpin containing CUG repeats. […] MBNL1 has a well characterized role in myotonic dystrophy where impaired RNA splicing disrupts muscle development and function.
The method used for the MST fluorescence assay was as follows. A serial dilution of the ligand (Tideglusib) was prepared in a way to match the final buffer conditions in the reaction mix (assay buffer 20 mM HEPES pH 7.4, 0.05% Tween-20). The highest concentration of ligand was 500 μM and the lowest 15.3 nM. 5 μl of each dilution step were mixed with 5 μl of the fluorescent molecule. The final reaction mixture, which was filled in capillaries, contained a respective amount of ligand (max. conc. 250 μM, min. conc. 7.63 nM) and constant 50 nM fluorescent molecule. The samples were analyzed on a Monolith NT. 115 at 25° C., with 40% LED power and 40% Laser power. The fluorescence labeled RNA construct (RNA hairpin 2; produced by Metabion) had the following sequence: […]

[2] = tested on: RNA construct containing CAG repeats (RNA hairpin 2; SEQ ID NO:2); experiment: MicroScale Thermophoresis (MST) fluorescence binding assay, RNA hairpin 2; conditions: RNA hairpin 2 (CAG repeats)
Procedure: The method used for the MST fluorescence assay was as follows. A serial dilution of the ligand (Tideglusib) was prepared in a way to match the final buffer conditions in the reaction mix (assay buffer 20 mM HEPES pH 7.4, 0.05% Tween-20). The highest concentration of ligand was 500 μM and the lowest 15.3 nM. 5 μl of each dilution step were mixed with 5 μl of the fluorescent molecule. The final reaction mixture, which was filled in capillaries, contained a respective amount of ligand (max. conc. 250 μM, min. conc. 7.63 nM) and constant 50 nM fluorescent molecule. The samples were analyzed on a Monolith NT. 115 at 25° C., with 40% LED power and 40% Laser power. The fluorescence labeled RNA construct (RNA hairpin 2; produced by Metabion) had the following sequence:
Binding to other RNA trinucleotide repeats was investigated by repeating the experimental protocol above with an RNA repeat construct containing CAG repeats (RNA hairpin 2).

[3] = biological target: RNA construct containing CUG repeats with interspersed interrupting non CUG repeats (RNA hairpin 3; SEQ ID NO:3); experiment: MicroScale Thermophoresis (MST) fluorescence binding assay, RNA hairpin 3
[4] = tested on: GSK3β; experiment: GSK3β kinase protein levels in lymphocytes from treated Congenital Onset DM1 patients; assay type: in vivo, human; conditions: 400 mg or 1000 mg po per day, six and twelve weeks of treatment
Procedure: (§1) Lymphocyte cell pellets were lysed in 150 μl of cold NP40 Cell Lysis Buffer with protease inhibitors. Total protein of each extract was measured with DC Protein assay Kit according to the manufacturer specifications. For the analysis of GSK3β and related kinases, the commercially available kits AKT Pathway Total Multispecies 7-Plex Panel and the equivalent for the phosphorylated forms for Luminex® Platform from Thermo Fisher Scientific were used. These were the AKT Pathway (Total) 7-Plex Multispecies Panel (#LHO0002M ThermoFisher Scientific) that assays the following signaling proteins: GSK3β, Total IR, IGF-1R, IRS-1, Akt, PRAS40 and p70s6K. The AKT Pathway (Phospho) 7-Plex Multispecies Panel (#LHO0001M ThermoFisher Scientific) assays the following signaling proteins: GSK3β[pS9], IR[pYpY1162/1163], IGF-1R[pYpY1135/1136], IRS-1[pS312], Akt[pS473], PRAS40[pT246] and p70s6K[pTpS421/424].

[5] = tested on: phosphorylated Akt (pAkt); experiment: Phosphorylated Akt (pAkt) levels in lymphocytes from treated Congenital Onset DM1 patients; assay type: in vivo, human; conditions: 400 mg or 1000 mg per day, six and twelve weeks of treatment
Procedure: as §1, with “In order to determine whether the clinical benefit produced by administration of Tideglusib could be related to inhibition of GSK3β, the activity of this kinase in circulating tissues in treated patients was determined. Lymphocyte” for “Lymphocyte”, “IRS-1[[…]],” for “IRS-1[pS312],”, “PRAS40[[…]]” for “PRAS40[pT246]”, “[…]421/424].” for “p70s6K[pTpS421/424].”

[6] = tested on: patients having DM1; experiment: Clinical Global Impression of Improvement in patients having DM1; assay type: in vivo, human; conditions: patients having DM1, 400 mg or 1000 mg
[7] = tested on: phosphorylated Akt (pAkt); experiment: Phosphorylated Akt in lymphocytes from pediatric subjects with Autism Spectrum Disorder; assay type: in vivo, human; conditions: 12 weeks, titrated 400 mg to 1000 mg oral once per day, versus placebo, p<0.0001
Procedure: as §1, with “In order to determine whether the clinical benefit produced by administration of Tideglusib could be related to inhibition of GSK3β, the activity of this kinase in circulating tissues in treated patients was determined. Lymphocyte” for “Lymphocyte”, “IRS-1[[…]],” for “IRS-1[pS312],”, “PRAS40[[…]]” for “PRAS40[pT246]”, “[…]421/424].” for “p70s6K[pTpS421/424].”

[8] = tested on: ERK (pERK); experiment: Phosphorylated ERK in lymphocytes from pediatric subjects with Autism Spectrum Disorder; assay type: in vivo, human; conditions: 12 weeks, titrated 400 mg to 1000 mg oral once per day, versus placebo
[9] = tested on: JNK (pJNK); experiment: Phosphorylated JNK in lymphocytes from pediatric subjects with Autism Spectrum Disorder; assay type: in vivo, human; conditions: 12 weeks, titrated 400 mg to 1000 mg oral once per day, versus placebo

## CCn1c(=O)sn(Cc2ccccc2)c1=O [Compound 2, 2-Benzyl-4-ethyl-[1,2,4]thiadiazolidine-3,5-dione]
[1]; data not shown, read-out: KD
  pKd: 4.50

## O=c1sn(-c2cccc3ccccc23)c(=O)n1Cc1ccccc1 [Tideglusib, 4-Benzyl-2-naphthalen-1-yl-[1,2,4]thiadiazolidine-3,5-dione]
[1]; MST, 25° C., read-out: KD of binding
  pKd: 7.71
[2]
  binding to CAG repeat RNA (in words): No reliable of binding
[3]; RNA hairpin 3, CUG repeats with interrupting non CUG repeats, read-out: KD of binding
  pKd: 5.49
[3]; RNA hairpin 3, interspersed non CUG repeats (CCG and CUC), read-out: potency of binding
  pKd: 5.49
[3]; RNA hairpin 3 versus RNA hairpin 1
  fold less potent binding versus RNA hairpin 1: 162 fold
[4]
  effect on GSK3β levels in lymphocytes: Neither dose shows any effect
[4]; listed as Compound 1
  effect on GSK3β levels in lymphocytes: no effect
[5]
  effect on phosphorylated Akt (pAkt) levels in lymphocytes: not achieved; also recorded: unable overcome the phosphorylation of Akt
[5]; listed as Compound 1
  effect on phosphorylated Akt (pAkt) levels in lymphocytes: no effect
[6]
  clinical benefit, Clinical Global Impression of Improvement measurement scale: majority of patients having DM1 treated with Tideglusib showed clinical benefit
[7]
  inhibition of phosphorylation of Akt in lymphocytes: reduces levels of phosphorylation of Akt; also recorded: inhibited phosphorylation of Akt
[8]
  inhibition of phosphorylation of ERK in lymphocytes: did not inhibit phosphorylation
[9]
  inhibition of phosphorylation of JNK in lymphocytes: did not inhibit phosphorylation

## O=C(NCc1ccccc1)Nc1cccc2ccccc12 [urea derivative of Tideglusib, 1-benzyl-3-naphthalen-1-yl-urea]
[1]; MST
  binding to CUG repeat RNA (in words): no binding activity
[1]; MST, listed as main metabolite of Tideglusib
  binding to CUG repeat RNA (in words): No reliable binding
